Laboratory results: US5849900A, “Inhibition of viruses by antisense oligomers capable of binding to polypurine rich tract of single-stranded RNA or RNA-DNA hybrids” (Max-Planck-Gesellschaft zur Forderung der Wissenschafter …, priority 1995, dated 1998)

Columns and labels:
[1] = tested on: PPT region of single-stranded RNA; RNase H; assay: Protection of single-stranded RNA from RNase H cleavage by chimeric oligonucleotides 5'-A-B-C-3' (Example 4); format: biochemical, HIV-1; details: for oligonucleotide concentration that inhibited cleavage to 50%: 50-fold molar excess of the oligonucleotide over the template
Procedure: Chimeric oligonucleotides of the basic formula 5'-A-B-C-3' were tested with single-stranded RNA in a two-strand system. […] (Personal communication.) Average protection from cleavage was about 50%.
Protection from RNase H was monitored as above. Specifically, protection was monitored in vitro using RNA which was radioactively labeled at its 5'-end. Cleavage was analyzed on a sequencing gel. Cleavage within the PPT region of the RNA leads to a band of about 80 nucleotides. Protection from cleavage results in an uncleavaged full-length RNA. The amount of cleaved versus uncleaved RNA was monitored by phosphoimager.

[2] = tested on: PPT of HIV-1 viral RNA (pKJ2 RNA); assay: cDNA elongation / premature termination of cDNA synthesis on single-stranded viral RNA (Example 1); format: biochemical; details: antisense oligonucleotide hybridized with single-stranded HIV-1 RNA; HIV-1 RT
Procedure: HIV-1 viral RNA was transcribed in vitro from a construct containing a T7 promoter along with the PPT, which consists of the sequence: AAAAGAAAAGGGGGGA (SEQ ID NO: 1) or […] (SEQ ID NO: 2) when extended within the 3' LTR and 2 non-purines are included. The viral RNA, corresponding to pKJ2, consisted of 134 nucleotides. A ^32 P end-labeled antisense oligonucleotide was hybridized with the RNA. The cDNA reaction products were analyzed on 10% polyacrylamide TEE-urea gels. Details of the procedure are as follows:
To the standard reaction mixture described in Example 2 below were added a 125 μM quantity of one of the ddNTPs and each of the other three dNTPS and 4 units of HIV-1RT. The reactions were started by the addition of approximately 3 pmol of hybrid RNA (low specific activity) and treated as described above. To check for cDNA elongation, the same test was carried out, except with unlabeled in vitro transcribed RNA hybridized to a 10:1 mixture of unlabeled to labeled oligonucleotide. Aliquots were analyzed by electrophoresis on 10% TEE-urea-polyacrylamide gels.
The RNase H reaction was carried out in a total volume of 500 μL in RNase H buffer containing 1000 units of RNasin and 25 units of HIV-1RT/RNase H. After the reaction was started by the addition of 8 pmol of an unlabeled RNA-DNA oligonucleotide hybrid, the sample was divided into five aliquots of 100 μL and incubated for 30 minutes at 37° C., and the reaction was stopped at 95° C. for 5 minutes. The samples were placed on ice and to each was added 10 units of DNase I to remove the DNA oligonucleotide. After 10 minutes, the samples were incubated further at 37° C. for 10 minutes. The reactions were stopped at 95° C. for 10 minutes. […] Aliquots were analyzed by electrophoresis on an 8% TBE-urea-polyacrylamide gel together with dideoxy sequencing ladders generated with the same ^32 P-end-labeled DNA oligonucleotide primer on a single-stranded M13 DNA template harboring the corresponding DNA fragment. […]

[3] = tested on: pKJ2 RNA hybridized with 40-mer deoxyribonucleotide complementary to the PPT region; RNase H; assay: RNase H cleavage inhibition on pKJ2 RNA-DNA hybrid, phosphoimager quantitation (Example 3); format: biochemical, HIV-1; details: for IC50: range of concentrations, FIG. 4, phosphoimager, read-out: concentration that inhibited the RNase H by 50%
Procedure: In vitro transcribed, 5'end-labeled pKJ2 RNA of 134 nucleotides in length was hybridized with a 10-fold excess of a 40-mer deoxyribonucleotide complementary to the PPT region. Volkmann, et al., Biochimie, 1993, 75, 71-78. Hybridizations were carried out in 25 mM Tris-acetate buffer (pH 6.8) containing 50 mM NaCl, 10 mM β-mercapotoethanol and 0.4 mM spermine hydrochloride. The mixture was incubated for 3 minutes at 90° C., then cooled slowly to room temperature. For triplex-formation, 1 pmol hybrid substrate was incubated with either 10 or 100 pmol oligodeoxynucleotide overnight at 37° C. Finally, each sample was treated with 12 ng enzyme in 10 microliters RNase H-standard buffer (see Example 2) for 30 minutes at 37° C. RNase H cleavage reaction was stopped by incubation at 96° C. for 2 minutes. Samples were ethanol-precipitated and analyzed on 10% polyacrylamide-TEE-urea gel. The gel was visualized by autoradiography and analyzed with a phosphoimager (Molecular Dynamics). GT purine-pyrimidine mixed DNA oligonucleotides and RNA oligonucleotides were analyzed and compared with a 25-mer pyrimidine sequence in parallel (Seq ID No: 3) and antiparallel (Seq ID No: 42) orientation. To quantitate the effects of the oligonucleotides, the amounts of uncut RNA were determined. The oligonucleotides tested are listed below:
Oligonucleotides GT1, GT2, and GU1 were tested further at a range of concentrations. The concentrations of the remaining materials were as previously. The quantitative plots of phosphoimager results for GT1, GT2, and GU1 are depicted in FIG. 4. GT1 inhibited the RNase H by 50% at 5.0 μM, and GU1 inhibited 50% at 0.5 μM.

[4] = tested on: RT; assay: Inhibition of the RT by TFO-A variants; format: biochemical, HIV-1
Excerpt: Through these studies, it was learned that the two bulges are essential for protection of RNA and that the overhanging 5'- and 3'-ends can be shortened. Variances numbered 5037 (SEQ ID NO:26) and 5074 (SEQ ID NO:21) inhibited cleavage to 50% at 50-fold molar excess of the oligonucleotide over the template, i.e., about one μM oligonucleotide.

[5] = 1 pmol hybrid with 10 or 100 pmol oligonucleotide

TFO F1: TFO F derivative that formed a pseudocircle due to a complementary tail (GCATGCCCTTTTCTTTTCCCCCCTTTTTTCCCCCCTTTTCTTTTCCGCATGC; forms pseudocircle through self-complementary tail, further chemistry not given here)
inhibition of RNase H [1]: about 80%

CCGCCCAGGCCACGCCTCCC (chemistry not given here) [SEQ ID NO: 11, control antisense 20-mer outside the PPT region, reference compound]
blocking of cDNA synthesis (inhibition of cDNA elongation) [2]: 20-50%

TTTTCTTTTGGGGGGTTTGGTTGGGTTTTCCCTTCCAGTCCCCCCTTTTCTTTT (chemistry not given here) [TFO A, 54-mer, partially self-complementary, hairpin-type stem-looped structure]
inhibition of cleavage (in words) ([1]; at concentrations less than one nanomolar, in vitro): completely inhibited cleavage

CCCTTCCAGTCCCCCCTTTTCTTTT (chemistry not given here) [PY2]
inhibition of RNase H (degree, in words) [3, 5]: lowest degree of inhibition

TTTTGTTTTGGGGGGTGTGGTTGGG (chemistry not given here) [TFO 1', 25-mer GT triplex-forming oligonucleotide]
IC50 [3]: 5000 nM

TGAATTAGCCCTTCCAGTCCCCCCTTTTCTTTTAAAAAGT (chemistry not given here) [SEQ ID NO: 9, antisense 40-mer covering the PPT]
blocking of cDNA synthesis (inhibition of cDNA elongation) [2]: 100%

5037: TFO-A variant, sequence shown only as drawing in Table 6 (TTTTCTTTTGGGGGGTTTGGTTGGGTTTTCCCTTCCAGTCCCCCCTTTTCTTTT; chemistry not given here) [compound 5037]
oligonucleotide concentration that inhibited cleavage to 50% [1]: about one | concentration at which ninety-five percent inhibition of the RT occurred [4]: about 25 μM

AGGGGATTTGGTTGGGTTTTCCCTTCCAGTCCCCC (chemistry not given here) [compound 5074, TFO-A variant]
oligonucleotide concentration that inhibited cleavage to 50% [1]: about one | concentration at which ninety-five percent inhibition of the RT occurred [4]: about 25 μM

Us Us Us Us Cs Us Us Us Us Cs Cs Cs Cs Cs Cs Us TTTTTCCCCC TTTTCTTTT (UUUUCUUUUCCCCCCUTTTTTCCCCCCTTTTCTTTT; phosphorothioate backbone, chemistry not fully specified) [Rs RD]
protection from cleavage ([1]; at equimolar concentration): One hundred percent | inhibition (protection from RNase H) ([1]; at the same concentration as the phosphodiester): 100%

AGTCCCCCCTTTTCTTTTAA (chemistry not given here) [SEQ ID NO: 10, antisense 20-mer covering the PPT]
blocking of cDNA synthesis (inhibition of cDNA elongation) [2]: 100%

UUUUGUUUUGGGGGGUGUGGUUGGG (chemistry not given here) [GU1, the RNA oligonucleotide tested]
inhibition of RNase H [3, 5]: ~100% | IC50 [3]: 500 nM
